The assay deals with Kv7.2/7.3 (Homo sapiens, UniProt O43525+O43526). The assay is described as follows: Kv7.2/7.3 Activation Assay, QPatch single concentration screen. It counts as cell-based. Also on record: host or cells: HEK cells, tetracycline-inducible expression; key: 1.2-2.9 (+); 3-3.9 (++); >4 (+++) fold increase over baseline; O represents open channel at holding potential. The settings on record: Kv7.2/Kv7.3 co-expressing HEK cells, compound concentration 3 μM, steady-state current at end of 2 s pulse to −30 mV. On the procedure: Kv7.2/7.3 Activation Assay
The ability of compounds to potentiate K-currents in Kv7.2/7.3 containing HEK cells was assessed using planar patch-clamp on the QPatch automated screening platform.
The hKv7.2/7.3 cell line was obtained from Chantest (Cleveland, Ohio 44128) cat. #CT6147. These HEK cells will express the Kv7.2/7.3 ion channels when induced.
Cells were maintained in a media containing DMEM/F12; 50/50 (GIBCO cat. #11330), 10% Fetal Bovine Serum (FBS) (GIBCO cat. #26140), 100 units/mL Penicillin-Streptomycin (GIBCO cat. #15140), 0.005 mg/mL Blasticidin (INVIVOGEN cat. #ant-b1-1), 0.5 mg/mL Geneticin (GIBCO cat. #10131), 0.1 mg/mL Zeocin (GIBCO cat. #R25001). Cells used in the electrophysiology assay were maintained in a media without Blasticidin, Geneticin and Zeocin for 2 days and channel expression was induced by adding tetracycline (BIOLINE cat. #BIO-87030) at a final concentration of 1 mg/mL. Cells were grown in T-175 flask to ˜75% confluency. Currents were recorded 24 hours after channel induction.
Test compounds were prepared by performing serial dilutions on a Biomek NX^P (BECKMAN COULTER). Final dilutions were made in external recording solution with a final DMSO concentration of 0.1% DMSO. For single concentration screens each plate had 10 μM retigabine as a positive control and 0.1% DMSO as a negative control.
On the day of the experiment cells were washed with Hank's Balanced Salt Solution (HBBS) (GIBCO cat. #14175) and harvested with Tryple (GIBCO cat. #12604). Cells were then centrifuged at 2000 rpm for 5 minutes and resuspended in CHO-S-SFM (GIBCO cat. #12052) at ˜3×10^6 cells/mL. Cells were stirred for 30 minutes before experiments were started. External recording solution contained (in mM): NaCl (145), KCl (4), CaCl2 (2), MgCl2 (1), HEPES (10) and Glucose (10); pH was adjusted to 7.4 with NaOH and the osmolarity was adjusted to 300-305 mOsM with sucrose if necessary. Internal solution contained (in mM): KCl (125), KF (10), EGTA (5), Na2ATP (5), MgCl2 (3.2), HEPES (5); pH was adjusted to 7.2 with KOH and the osmolarity was adjusted to 298-302 mOsM with sucrose.
Potassium channel activity was measured on the QPatch HTX (Sophion Bioscience) using QPlates with 48-wells/plate. Each cell was taken as an independent experiment and only one compound was tested per well. Potassium channel activity was elicited by holding at −80 mV and stepping to −30 mV for 2 s followed by a 100 ms pulse to −120 mV.
Single Concentration Screen:
Baseline conditions were obtained by recording 5 sweeps in the external solution only, this was repeated for three applications of the external solution. The effect of test compounds on elicited current was then assessed by recording 5 sweeps in the presence of a 3 μM compound solution. The steady-state current at the end of the 2 s pulse to −30 mV was measured to determine the fold increase from baseline.

Each structure is given as a SMILES string.

For the compound `CN(C)c1ccc2nc(NC(=O)CC(C)(C)C)n(C3CCC3)c2c1F` [Example 454, N-(1-cyclobutyl-6-(dimethylamino)-7-fluoro-1H-benzo[d]imidazol-2-yl)-3,3-dimethylbutanamide], the “Kv7.2/7.3 Activity: increase over baseline in current” value (“Kv7.2/7.3 Activity: increase” below) is recorded as “+++ (>4 (+++) fold increase over baseline)”.

Turning to `CC(C)(C)CC(=O)Nc1nc2cc(F)c(C#N)c(F)c2n1C1CCC1` [Example 356, N-(6-cyano-1-cyclobutyl-5,7-difluoro-1H-benzo[d]imidazol-2-yl)-3,3-dimethylbutanamide], the “Kv7.2/7.3 Activity: increase” value was “+ (1.2-2.9 (+))”.

With `C[C@@H](CC(=O)Nc1nc2ccc(C(C)(C)O)cc2n1C1CCC1)c1ccccc1` [Example 369, (S)-N-(1-cyclobutyl-6-(2-hydroxypropan-2-yl)-1H-benzo[d]imidazol-2-yl)-3-phenylbutanamide], the “Kv7.2/7.3 Activity: increase” value is “O”.

Turning to `CC(C)(C)CC(=O)Nc1nc2cc(F)c(C#N)cc2n1C1(C)CCC1` [Example 437, N-(6-cyano-5-fluoro-1-(1-methylcyclobutyl)-1H-benzo[d]imidazol-2-yl)-3,3-dimethylbutanamide], the “Kv7.2/7.3 Activity: increase” value was “++ (3-3.9 (++))”.

For the compound `CC(C)(C)CC(=O)Nc1nc2ccc(C#N)c(F)c2n1C(C)(C)C` [Example 387, N-(1-(tert-butyl)-6-cyano-7-fluoro-1H-benzo[d]imidazol-2-yl)-3,3-dimethylbutanamide], the “Kv7.2/7.3 Activity: increase” value is reported as “++ (3-3.9 (++))”.

As to `CC(O)(CC(=O)Nc1nc2ccc(C#N)cc2n1C1(C)CCC1)c1ccc(F)cc1F` (single isomer, unassigned) [Example 430, N-(6-cyano-1-(1-methylcyclobutyl)-1H-benzo[d]imidazol-2-yl)-3-(2,4-difluorophenyl)-3-hydroxybutanamide], the “Kv7.2/7.3 Activity: increase” value is recorded as “++ (3-3.9 (++))”.

On to `CC(CF)(CF)CC(=O)Nc1nc2c(F)cc(C(C)(C)O)cc2n1C1(C)CCC1` [Example 480, 4-fluoro-N-(4-fluoro-6-(2-hydroxypropan-2-yl)-1-(1-methylcyclobutyl)-1H-benzo[d]imidazol-2-yl)-3-(fluoromethyl)-3-methylbutanamide], for which the “Kv7.2/7.3 Activity: increase” value is on record as “O”.

On to `CC(C)(C)CC(=O)Nc1nc2ccc(Cl)c(C#N)c2n1C1CCC1` [Example 439, N-(6-chloro-7-cyano-1-cyclobutyl-1H-benzo[d]imidazol-2-yl)-3,3-dimethylbutanamide], for which the “Kv7.2/7.3 Activity: increase” value is “+ (1.2-2.9 (+))”.

In the case of `CC(O)(CC(=O)Nc1nc2cccc(C#N)c2n1C1(C)CCC1)c1ccccc1` (single isomer, unassigned) [Example 468, N-(7-cyano-1-(1-methylcyclobutyl)-1H-benzo[d]imidazol-2-yl)-3-hydroxy-3-phenylbutanamide], the “Kv7.2/7.3 Activity: increase” value is “+ (1.2-2.9 (+))”.

For `CC(C)(C)CC(=O)Nc1nc2cc(F)c(C3(O)CCC3)c(F)c2n1C1CCC1` [Example 424, N-(1-cyclobutyl-5,7-difluoro-6-(1-hydroxycyclobutyl)-1H-benzo[d]imidazol-2-yl)-3,3-dimethylbutanamide], the “Kv7.2/7.3 Activity: increase” value was “O”.

`CC(C)(C)CC(=O)Nc1nc2c(F)cc(OC(F)F)cc2n1C1(C)CCC1` [Example 459, N-(6-(difluoromethoxy)-4-fluoro-1-(1-methylcyclobutyl)-1H-benzo[d]imidazol-2-yl)-3,3-dimethylbutanamide]: the “Kv7.2/7.3 Activity: increase” value was “+++ (>4 (+++) fold increase over baseline)”.

As to `CC1(CC(=O)Nc2nc3ccc(C(C)(C)O)cc3n2C2(C)CCC2)CC1` [Example 391, N-(6-(2-hydroxypropan-2-yl)-1-(1-methylcyclobutyl)-1H-benzo[d]imidazol-2-yl)-2-(1-methylcyclopropyl)acetamide], the “Kv7.2/7.3 Activity: increase” value is reported as “+ (1.2-2.9 (+))”.

For `CC(C)(O)c1cc(F)c2nc(NC(=O)CC3CC(F)(F)C3(F)F)n(C3CCC3)c2c1` (single isomer, unassigned) [Example 400, N-(1-cyclobutyl-4-fluoro-6-(2-hydroxypropan-2-yl)-1H-benzo[d]imidazol-2-yl)-2-(2,2,3,3-tetrafluorocyclobutyl)acetamide], the “Kv7.2/7.3 Activity: increase” value was “+++ (>4 (+++) fold increase over baseline)”.

Regarding `C[C@H](C(=O)Nc1nc2ccc(C(C)(C)O)cc2n1C1(C)CCC1)C(C)(C)C` [Example 383, (S)-N-(6-(2-hydroxypropan-2-yl)-1-(1-methylcyclobutyl)-1H-benzo[d]imidazol-2-yl)-2,3,3-trimethylbutanamide], the “Kv7.2/7.3 Activity: increase” value is on record as “++ (3-3.9 (++))”.

Take `CC1(CC(=O)Nc2nc3c(F)cc(C(C)(C)O)cc3n2C2(C)CCC2)CC1` [Example 474, N-(4-fluoro-6-(2-hydroxypropan-2-yl)-1-(1-methylcyclobutyl)-1H-benzo[d]imidazol-2-yl)-2-(1-methylcyclopropyl)acetamide]: the “Kv7.2/7.3 Activity: increase” value is “O”.

On to `CC(C)(C)CC(=O)Nc1nc2c(OC(F)F)cc(C#N)cc2n1C1(C)CCC1` [Example 381, N-(6-cyano-4-(difluoromethoxy)-1-(1-methylcyclobutyl)-1H-benzo[d]imidazol-2-yl)-3,3-dimethylbutanamide], for which the “Kv7.2/7.3 Activity: increase” value is “++ (3-3.9 (++))”.

`CC1(n2c(NC(=O)CC(C)(C)C(F)(F)F)nc3ccc(OC(F)F)cc32)CCC1` [Example 366, N-(6-(difluoromethoxy)-1-(1-methylcyclobutyl)-1H-benzo[d]imidazol-2-yl)-4,4,4-trifluoro-3,3-dimethylbutanamide]: the “Kv7.2/7.3 Activity: increase” value is recorded as “+ (1.2-2.9 (+))”.

For `CC(C)(O)c1cc(F)c2nc(NC(=O)CSC(F)(F)F)n(C3CCC3)c2c1` [Example 413, N-(1-cyclobutyl-4-fluoro-6-(2-hydroxypropan-2-yl)-1H-benzo[d]imidazol-2-yl)-2-((trifluoromethyl)thio)acetamide], the “Kv7.2/7.3 Activity: increase” value was “+++ (>4 (+++) fold increase over baseline)”.

Consider `CC(C)(O)c1ccc2nc(NC(=O)Cc3cccc(F)c3)n(C3(C)CCC3)c2c1` [Example 435, 2-(3-fluorophenyl)-N-(6-(2-hydroxypropan-2-yl)-1-(1-methylcyclobutyl)-1H-benzo[d]imidazol-2-yl)acetamide], for which the “Kv7.2/7.3 Activity: increase” value is listed as “O”.

In the case of `CC(C)(CC(=O)Nc1nc2ccc(C#N)cc2n1C(C)(C)C(F)(F)F)C1CC1` [Example 333, N-(6-cyano-1-(1,1,1-trifluoro-2-methylpropan-2-yl)-1H-benzo[d]imidazol-2-yl)-3-cyclopropyl-3-methylbutanamide], the “Kv7.2/7.3 Activity: increase” value is “++ (3-3.9 (++))”.

With `CC(O)(CC(=O)Nc1nc2ccc(OC(F)F)cc2n1C1CCC1)c1ccccc1` (single isomer, unassigned) [Example 402, N-(1-cyclobutyl-6-(difluoromethoxy)-1H-benzo[d]imidazol-2-yl)-3-hydroxy-3-phenylbutanamide], the “Kv7.2/7.3 Activity: increase” value was “++ (3-3.9 (++))”.

As for `CC(C)(O)c1ccc2nc(NC(=O)CC(C)(C)C(F)F)n(C3CCC3)c2c1` [Example 386, N-(1-cyclobutyl-6-(2-hydroxypropan-2-yl)-1H-benzo[d]imidazol-2-yl)-4,4-difluoro-3,3-dimethylbutanamide], the “Kv7.2/7.3 Activity: increase” value is recorded as “+ (1.2-2.9 (+))”.

As for `CC(C)(O)c1ccc2nc(NC(=O)CC3CC(F)(F)C3(F)F)n(C3CCC3)c2c1` (centres unmarked) [Example 353, N-(1-cyclobutyl-6-(2-hydroxypropan-2-yl)-1H-benzo[d]imidazol-2-yl)-2-(2,2,3,3-tetrafluorocyclobutyl)acetamide], the “Kv7.2/7.3 Activity: increase” value is recorded as “+ (1.2-2.9 (+))”.

Values taken from US10851067B2, “Kv7 channel activators compositions and methods of use” (Knopp Biosciences LLC, priority 2018, dated 2020).
